Results as given in ChEMBL document CHEMBL1157303, “Bioactive triterpenoids from Salvia species” (J Nat Prod, 2006).

How the values were obtained:
Mus musculus = assay: Antiinflammatory activity against croton oil-induced ear edema in mouse; assay type: functional
[1] = Inhibition of rat DNA polymerase in presence of bovine serum albumin
[2] = Inhibition of rat DNA polymerase in absence of bovine serum albumin

Structure (SMILES): COc1ccc2c(c1)c(CC(=O)O)c(C)n2C(=O)c1ccc(Cl)cc1 [INDOMETHACIN]
- ID50 (Mus musculus): 0.26 µmol

Structure (SMILES): CC1(C)CC[C@]2(C(=O)O)CC[C@]3(C)C(=CC[C@@H]4[C@@]5(C)CC[C@H](O)C(C)(C)[C@@H]5CC[C@]43C)[C@@H]2C1 [OLEANOLIC_ACID]
- IC50 [1]: 7.5 µM
- IC50 [2]: 3.7 µM

Structure (SMILES): C[C@H]1[C@H](C)CC[C@]2(C(=O)O)CC[C@]3(C)C(=CC[C@@H]4[C@@]5(C)CC[C@H](O)C(C)(C)[C@@H]5CC[C@]43C)[C@H]12 [URSOLIC ACID]
- IC50 [1]: 8.5 µM
- ID50 (Mus musculus): 0.14 µmol
- IC50 [2]: 4.8 µM
